Test results taken from US9119395B2, “Active substance mixtures comprising OPP and amines, microbicidal agents” (LANXESS Deutschland GmbH, priority 2005, dated 2015).

What was measured:
[1] = system: microorganism mixture: Pseudomonas aeruginosa, Pseudomonas fluorescens, Pseudomonas oleovorans, Pseudomonas rubescens, Pseudomonas stutzeri, Alcalaigenes …; test: Microbiological preservation stress test in a chalk suspension; type: cell-based; settings: 60° C. for 3 days before test, weekly contamination
From the text: The preserving action of an active compound mixture according to the invention was examined in a chalk suspension using a preservation stress test.
The microbiological stress test examines the susceptibility of water-based systems to microbial attack and the action of preservatives. To this end, the preservatives are incorporated in defined concentrations into the water-based systems. To simulate praxis-like conditions, depending on the medium to be examined, a storage at elevated temperatures (for example 7 days at 40° C., 3 days at 60° C. or the like) may be carried out prior to the actual preservation test to evaluate the preservatives to be examined under conditions which are as realistic as possible. After the preparations have been carried out, contamination with microorganisms of a defined species is carried out at weekly intervals over a test period of at most 6 weeks. 2-3 and 7 days after each contamination, by counting the number of germs, it is established whether a complete kill or at least inhibition of propagation of the bacteria introduced has been achieved, compared to the unpreserved control samples.
The contamination source used for the examination in the stress test was the following microorganism mixture:
Very good activity is achieved when, even after 6 contamination cycles, the reserved samples effect a kill of the microorganisms introduced.
Using a chalk suspension (proportion of solids 70-75%), a preservation stress test according to the above scheme was carried out. After incorporation of the respective biocidally active compounds at the stated concentrations, the samples were exposed to thermal stress at 60° C. for 3 days. The samples pre-treated in this manner were then used for carrying out the microbiological stress test.

Pseudomonas fluorescens = test: Minimum inhibitory concentration and synergism (Kull synergistic index) of OPP/AMINE 1 combinations; type: cell-based; settings: compound applied on its own (QA/QB)
From the text: The observed synergism of the mixtures according to the invention can be determined by the following mathematical approach (cf. F. C. Kull, P. C. Elisman, H. D. Sylwestrowicz and P. K. Mayer, Appl. Microbiol, 9, 538 (1961):
[formula] where • Qa=the amount of component A in the active compound mixture required to achieve the desired effect, i.e. no microbial growth, • QA=the amount of component A which, applied on its own, suppresses the growth of the microorganisms, • Qb=the amount of component B in the active compound mixture which suppresses the growth of the microorganisms, • Qb=the amount of component B which, applied on its own, suppresses the growth of the microorganisms.
A synergistic index of SI<1, in accordance with the above formula, indicates a synergistic effect for the active compound mixture.
The minimum inhibitory concentration of the active compound combinations listed in Table 1 were examined using the test germ Pseudomonas fluorescens

Oc1ccccc1-c1ccccc1 [OPP, o-phenylphenol]
ok: Week 1 ([1]; 150 ppm) | Week 1 ([1]; 200 ppm) | Week 2 ([1]; 200 ppm) | Week 3 ([1]; 200 ppm) | Week 4 ([1]; 200 ppm)
spoilt: Week 2 ([1]; 150 ppm) | Week 3 ([1]; 150 ppm) | Week 4 ([1]; 150 ppm) | Week 5 ([1]; 150 ppm) | Week 6 ([1]; 150 ppm) | Week 5 ([1]; 200 ppm) | Week 6 ([1]; 200 ppm)
500 (=QA) ppm: Amount of pure active compounds required to suppress growth (Pseudomonas fluorescens)

CCCCCCCCCCCCN(CCCN)CCCN [“AMINE 1”, bis(3-aminopropyl)dodecylamine]
spoilt: Week 2 ([1]; 80 ppm) | Week 3 ([1]; 80 ppm) | Week 4 ([1]; 80 ppm) | Week 5 ([1]; 80 ppm) | Week 6 ([1]; 80 ppm) | Week 4 ([1]; 160 ppm) | Week 5 ([1]; 160 ppm) | Week 6 ([1]; 160 ppm)
ok: Week 1 ([1]; 80 ppm) | Week 1 ([1]; 160 ppm) | Week 2 ([1]; 160 ppm) | Week 3 ([1]; 160 ppm)
50 (=QB) ppm: Amount of pure active compounds required to suppress growth (Pseudomonas fluorescens)
